Measurements published in ChEMBL document CHEMBL1149794, “3D-QSAR and docking studies of aminopyridine carboxamide inhibitors of c-Jun N-terminal kinase-1” (Eur J Med Chem, 2008).

These compounds were tested against Mitogen-activated protein kinase 8 (Homo sapiens, UniProt P45983) (assay: Inhibition of JNK1).
Mitogen-activated protein kinase 8, sequence (P45983 whole entry): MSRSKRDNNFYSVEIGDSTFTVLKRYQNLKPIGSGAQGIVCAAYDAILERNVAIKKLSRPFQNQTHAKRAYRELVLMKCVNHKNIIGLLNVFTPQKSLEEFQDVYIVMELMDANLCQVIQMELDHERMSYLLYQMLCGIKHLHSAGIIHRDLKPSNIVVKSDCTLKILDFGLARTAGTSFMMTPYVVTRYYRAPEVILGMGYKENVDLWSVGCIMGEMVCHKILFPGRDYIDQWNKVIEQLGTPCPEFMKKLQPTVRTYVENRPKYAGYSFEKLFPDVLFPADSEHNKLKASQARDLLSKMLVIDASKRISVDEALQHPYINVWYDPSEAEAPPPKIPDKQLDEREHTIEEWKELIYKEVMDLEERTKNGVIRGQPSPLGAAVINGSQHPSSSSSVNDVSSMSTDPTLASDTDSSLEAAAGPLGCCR

Compound | IC50 [nM]
C[C@@H](CO)Nc1nc(C(=O)NCc2ccc(S(C)(=O)=O)cc2)cc(N)c1C#N | 180
CC(C)[C@H](CO)Nc1nc(C(=O)NCc2ccc(S(C)(=O)=O)cc2)cc(N)c1C#N | 1500
CS(=O)(=O)c1ccc(CNC(=O)c2cc(N)c(C#N)c(OCCC(=O)O)n2)cc1 | 1640
C[C@@H](CO)Oc1nc(C(=O)NCc2ccc(S(C)(=O)=O)cc2)cc(N)c1C#N | 22
